One data set has as its target complement protein B (Homo sapiens, UniProt P00751). Description: Inactivation rate of complement protein B. In kind it is biochemical. Conditions: for kinact/KI: Table II, pH 7.5, 25° C, [I] 0.19 to 1.25 mM, read-out: kobs/[I]. The procedure:
(§1) Inactivation rates of serine proteases by substituted isocoumarins were measured by the incubation method. An aliquot of inhibitor (25 or 50 μl) in Me2 SO was added to a buffered enzyme solution (0.01-2.3 μM) to initiate the inactivation. Aliquots (50 μl) were withdrawn at various intervals and the residual enzymatic activity was measured. Me2 SO concentration in the reaction mixture was 8-12% (v/v). 0.1 Hepes, 0.01M CaCl2, pH 7.5 buffer was utilized for trypsin and coagulation enzymes. 0.1M Hepes, 0.5M NaCl, pH 7.5 was utilized for other serine proteases. The inhibitor concentrations are shown in all the tables. Peptide thioesters or peptide nitroanilides with appropriate sequence were used as substrates for various serine proteases. All peptide thioester hydrolysis rates were measured with assay mixtures containing 4,4'-dithiodipyridine (ε324 =19800M^-1 cm^-1; Grasetti & Murray, Arch. Biochem. Biophys. 119, pp 41-49 (1967)). Peptide 4-nitroanilide nitroanilide hydrolysis was measured at 410 nm (ε410 =8800M^-1 cm^-1; Erlanger et al., Arch. Biochem. Biophys. 95, pp 271-278 (1961)). First order inactivation rate constant (kobs) were obtained from plots of ln (vt /vo) vs time, and the correlation coefficients were greater than 0.98.
(§2) ^a Conditions were 0.1M Hepes, 0.5M NaCl, pH 7.5, 8-10% Me2 SO
(§3) and 25° C. Inactivation rates were measured by incubation method.
(§4) Enzyme concentrations were as follows: protein D, 1-9 μM; C2, 0.7-1
(§5) μM; B, 1.8 μM; Bb, 0.3-0.8 μM; Cl^- s, 0.07 μM; Cl^-

Another data set deals with T1, human granzyme A (Homo sapiens, UniProt P12544).
T1 construct: human cytotoxic lymphocyte granzyme A; endogenous in cells; host or cells: human cytotoxic lymphocytes
T1 sequence (P12544 29-262): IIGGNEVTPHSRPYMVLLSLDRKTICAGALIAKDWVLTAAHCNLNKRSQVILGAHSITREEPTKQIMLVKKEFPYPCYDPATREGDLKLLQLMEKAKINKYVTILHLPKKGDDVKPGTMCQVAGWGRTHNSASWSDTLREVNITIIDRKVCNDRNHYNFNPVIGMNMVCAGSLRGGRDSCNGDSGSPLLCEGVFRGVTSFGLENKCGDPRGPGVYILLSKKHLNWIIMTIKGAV
The experiment in a line: Inactivation rate of human granzyme A. Type of data set: biochemical. As to conditions: Table VII; pH 7.5, 25° C; [I] 0.4 to 45 μM; read-out: kobs/[I]. As to the method: as §1
^a Inactivation rates were measured at 0.1M Hepes, 0.01M CaCl2,
pH 7.5, 8% Me2 SO and 25° C. by incubation method. ZArg-SBzl
(74-85 μM) was used as the substrate to monitor the residual enzymatic

A short description of data set [1]: Prothrombin time (PT), rabbit plasma. The procedure:
^a Plasma and inhibitor were incubated at 37° C. for 1 min.,
Dade thromboplastin reagent was then added.
^b Plasma and inhibitor were incubated at 37° C. for 3 min.,
Orthobrain thromboplastin reagent was then added.

A further data set concerns the target T2, Bb (Homo sapiens, UniProt P00751).
T2 construct: active fragments C2a, Bb
The experiment in a line: Inactivation rate of complement fragment Bb. Type of data set: biochemical. As to conditions: Table II; pH 7.5, 25° C; [I] 0.05 to 1.25 mM; read-out: kobs/[I]. As to the method:
as §1, §2, §3, §4, §5

The target in another data set is T3, bovine trypsin (Bos taurus, UniProt P00760).
T3 sequence (P00760 24-246): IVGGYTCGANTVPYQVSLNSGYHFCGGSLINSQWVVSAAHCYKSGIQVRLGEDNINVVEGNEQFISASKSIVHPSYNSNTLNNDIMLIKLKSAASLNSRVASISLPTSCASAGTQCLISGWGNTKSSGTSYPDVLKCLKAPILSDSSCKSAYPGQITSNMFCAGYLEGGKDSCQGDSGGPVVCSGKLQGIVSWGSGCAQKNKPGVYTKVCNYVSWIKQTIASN
Description: Inactivation rate of bovine trypsin. In kind it is biochemical. As to conditions: read-out: kobs/[I]. A digest of the protocol:
(§6)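 Enzyme 0.01-2.3 μM, 0.1M Hepes/0.01M CaCl2 pH 7.5, 8-12% Me2SO, 25° C; inhibitor added, timed aliquots assayed for remaining activity; kobs = slope of ln(vt/vo) vs t.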

The nature of data set [2]: Spontaneous hydrolysis in human plasma. As to conditions: for half-life: human plasma, read-out: t1/2 for spontaneous hydrolysis. In kind it is in vitro ADME.
In the next data set the target is T4, human factor VIIa (Homo sapiens, UniProt P08709).
T4 construct: human factor VIIa
T4 sequence (P08709 213-466 limits assumed): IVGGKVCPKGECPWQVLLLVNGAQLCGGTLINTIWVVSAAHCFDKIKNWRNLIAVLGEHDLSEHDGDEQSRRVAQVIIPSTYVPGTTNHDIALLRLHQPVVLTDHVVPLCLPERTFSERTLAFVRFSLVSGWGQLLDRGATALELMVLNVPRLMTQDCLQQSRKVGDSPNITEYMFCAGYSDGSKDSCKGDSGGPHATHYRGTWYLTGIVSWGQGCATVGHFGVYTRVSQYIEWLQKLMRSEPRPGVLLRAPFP
T4 sequence (P08709 61-212 partner limits assumed): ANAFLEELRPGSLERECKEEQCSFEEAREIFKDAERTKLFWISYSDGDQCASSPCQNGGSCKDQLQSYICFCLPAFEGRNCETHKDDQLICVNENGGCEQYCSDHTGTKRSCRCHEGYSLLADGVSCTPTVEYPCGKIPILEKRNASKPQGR
Description: Inactivation rate of human factor VIIa. In kind it is biochemical. As to conditions: Table I; pH 7.5, 25° C; [I] 5 to 44 μM; read-out: kobs/[I].

In the next data set the target is T5, human factor Xa (Homo sapiens, UniProt P00742).
T5 construct: human factor Xa
The experiment in a line: Inactivation rate of human factor Xa. Type of data set: biochemical. Conditions: pH 7.5, 25° C, read-out: kobs/[I]. A digest of the protocol:
as §6

[3] abbreviates: Table I, pH 7.5, 25° C, [I] 1 to 12 μM.
[4] abbreviates: pH 7.5, Table I, progress curve method.
[5] abbreviates: pH 7.5, Table I, same concentration of enzyme and inhibitor.

Like-named read-outs stand apart in the source and are kept apart here.

T5 sequence (P00742 235-488 limits assumed): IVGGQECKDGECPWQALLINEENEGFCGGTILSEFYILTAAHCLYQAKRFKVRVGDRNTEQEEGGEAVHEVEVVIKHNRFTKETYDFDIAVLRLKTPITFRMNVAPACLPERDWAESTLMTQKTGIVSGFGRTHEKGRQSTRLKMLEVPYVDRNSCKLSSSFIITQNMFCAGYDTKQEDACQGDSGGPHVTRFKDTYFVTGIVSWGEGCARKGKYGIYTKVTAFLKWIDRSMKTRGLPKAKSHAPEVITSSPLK
T5 sequence (P00742 41-179 partner limits assumed): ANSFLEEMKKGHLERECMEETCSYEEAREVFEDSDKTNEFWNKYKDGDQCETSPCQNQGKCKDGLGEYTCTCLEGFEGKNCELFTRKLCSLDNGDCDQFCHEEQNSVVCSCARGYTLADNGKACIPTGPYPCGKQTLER
T2 sequence (P00751 260-764 limits assumed): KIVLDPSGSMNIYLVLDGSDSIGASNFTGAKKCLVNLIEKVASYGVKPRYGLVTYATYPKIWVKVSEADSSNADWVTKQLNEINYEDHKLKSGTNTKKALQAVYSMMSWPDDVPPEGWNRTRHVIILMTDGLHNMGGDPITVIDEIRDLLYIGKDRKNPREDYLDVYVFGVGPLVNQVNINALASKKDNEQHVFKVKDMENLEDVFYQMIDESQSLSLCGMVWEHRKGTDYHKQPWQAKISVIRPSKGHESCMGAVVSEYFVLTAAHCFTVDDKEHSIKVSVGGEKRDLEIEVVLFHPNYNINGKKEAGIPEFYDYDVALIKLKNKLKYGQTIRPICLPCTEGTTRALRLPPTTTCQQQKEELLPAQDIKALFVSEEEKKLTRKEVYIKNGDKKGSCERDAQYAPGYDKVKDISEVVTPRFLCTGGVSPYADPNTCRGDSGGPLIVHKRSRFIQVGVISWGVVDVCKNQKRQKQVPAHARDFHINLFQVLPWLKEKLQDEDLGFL
complement protein B, sequence (P00751 26-764): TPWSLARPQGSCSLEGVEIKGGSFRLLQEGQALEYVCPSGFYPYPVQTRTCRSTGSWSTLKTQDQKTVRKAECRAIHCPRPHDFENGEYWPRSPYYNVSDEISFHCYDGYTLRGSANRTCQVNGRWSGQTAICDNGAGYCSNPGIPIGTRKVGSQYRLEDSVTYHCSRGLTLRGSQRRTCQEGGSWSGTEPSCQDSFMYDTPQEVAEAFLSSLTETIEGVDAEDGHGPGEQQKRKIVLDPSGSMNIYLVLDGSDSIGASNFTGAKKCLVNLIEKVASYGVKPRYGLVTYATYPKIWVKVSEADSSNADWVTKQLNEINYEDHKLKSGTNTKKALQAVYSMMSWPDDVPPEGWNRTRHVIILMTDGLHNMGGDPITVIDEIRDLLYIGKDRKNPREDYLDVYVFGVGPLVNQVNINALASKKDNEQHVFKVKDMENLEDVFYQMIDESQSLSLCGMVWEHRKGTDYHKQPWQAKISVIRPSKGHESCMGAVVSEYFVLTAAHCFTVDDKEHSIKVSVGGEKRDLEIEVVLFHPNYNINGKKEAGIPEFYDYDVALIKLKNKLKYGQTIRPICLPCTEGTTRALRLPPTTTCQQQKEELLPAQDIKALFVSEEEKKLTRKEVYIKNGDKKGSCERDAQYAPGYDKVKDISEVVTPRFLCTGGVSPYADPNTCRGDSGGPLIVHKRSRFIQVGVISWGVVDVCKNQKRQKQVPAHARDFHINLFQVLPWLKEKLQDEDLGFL

Turning to `O=c1oc(Cl)c(Cl)c2ccccc12` [3,4-dichloroisocoumarin, reference compound], on complement protein B, the “inhibition of protein B (in words)” value was “do not show any inhibition”. On human granzyme A, the kinact/KI amounted to 50 M⁻¹ s⁻¹. The compound further registered a PT in data set [1] ([I] 33 μM, 3 min, Orthobrain thromboplastin) of 14.3 s.

On to `N=C(N)SCCOc1oc(=O)c2ccccc2c1Cl` [3-(2-isothiureidoethoxy)-4-chloroisocoumarin], for which the kinact/KI is 15 M⁻¹ s⁻¹ on Bb, 13 M⁻¹ s⁻¹ on complement protein B and 32000 M⁻¹ s⁻¹ at bovine trypsin (setting [3]).

For `NCCCOc1oc(=O)c2ccccc2c1Cl` [3-(3-aminopropoxy)-4-chloroisocoumarin], the kinact/KI was determined as 7600 M⁻¹ s⁻¹ at bovine trypsin (setting [3]) and 2010 M⁻¹ s⁻¹ at human granzyme A.

Consider `N=C(N)SCCCOc1oc(=O)c2ccccc2c1Cl` [3-(3-isothiureidopropoxy)-4-chloroisocoumarin], for which the kinact/KI at Bb turned out to be 0.8 M⁻¹ s⁻¹; on complement protein B it was 0.4 M⁻¹ s⁻¹; at bovine trypsin (setting [3]), 46000 M⁻¹ s⁻¹; on human granzyme A, 18400 M⁻¹ s⁻¹; at human factor VIIa, 450 M⁻¹ s⁻¹. Besides, in data set [2], the half-life came out at 0.5 min.

For the compound `N=C(N)SCCCOc1oc(=O)c2cc(N)ccc2c1Cl` [7-amino-4-chloro-3-(3-isothiureidopropoxy)isocoumarin], the kinact/KI at bovine trypsin (setting [4]) came to 410000 M⁻¹ s⁻¹; on human factor Xa (Table I, [I] 5 to 105 μM), 60 M⁻¹ s⁻¹; at human granzyme A, 6750 M⁻¹ s⁻¹; on human factor VIIa, 430 M⁻¹ s⁻¹. Further, the “stability in human plasma (in words)” value in data set [2] is on record as “fairly stable”. Also, the half-life in data set [2] worked out at 165 min. Moreover, the PT in data set [1] ([I] 33 μM, 1 min, Dade thromboplastin) came to 13.7 s; in data set [1] ([I] 131 μM, 1 min, Dade thromboplastin), 62.0 s.

As to `CCOc1oc(=O)c2cc(NC(=N)N)ccc2c1Cl` [7-guanidino-3-ethoxy-4-chloroisocoumarin, 7-guanidino-4-chloro-3-ethoxyisocoumarin], the kinact/KI was 95 M⁻¹ s⁻¹ on Bb; 167 M⁻¹ s⁻¹ at complement protein B; more than 110000 M⁻¹ s⁻¹ on bovine trypsin (setting [5]); 11000 M⁻¹ s⁻¹ on human factor Xa (Table I, [I] 5 to 105 μM); 6850 M⁻¹ s⁻¹ on human granzyme A; 2200 M⁻¹ s⁻¹ on human factor VIIa. For the same compound, the half-life in data set [2] was found to be 8.2 min. In addition, the PT in data set [1] ([I] 15 μM, 1 min, Dade thromboplastin) was 14.2 s; in data set [1] ([I] 31 μM, 1 min, Dade thromboplastin), 27.4 s; in data set [1] ([I] 31 μM, 3 min, Orthobrain thromboplastin), 17.2 s; in data set [1] ([I] 124 μM, 3 min, Orthobrain thromboplastin) it was more than 120 s.

As for `COc1cc2ccc(NC(=N)N)cc2c(=O)o1` [7-guanidino-3-methoxyisocoumarin], the kinact/KI on bovine trypsin (setting [3]) turned out to be 3300 M⁻¹ s⁻¹.

As to `N=C(N)Nc1ccc2c(Cl)c(OCCc3ccccc3)oc(=O)c2c1` [7-guanidino-4-chloro-3-(2-phenylethoxy)isocoumarin], the kinact/KI on Bb is 58 M⁻¹ s⁻¹; on bovine trypsin (setting [5]) it was more than 110000 M⁻¹ s⁻¹; on human factor Xa (Table I, [I] 5 to 105 μM) it was 11000 M⁻¹ s⁻¹. Moreover, the half-life in data set [2] amounted to 4.5 min.

Regarding `COc1oc(=O)c2cc(NC(=N)N)ccc2c1Cl` [7-guanidino-4-chloro-3-methoxyisocoumarin], the kinact/KI on Bb came out at 74 M⁻¹ s⁻¹; on complement protein B, 285 M⁻¹ s⁻¹; at bovine trypsin (setting [4]), 310000 M⁻¹ s⁻¹; at human factor Xa (Table I, [I] 5 to 105 μM) it was 11000 M⁻¹ s⁻¹. Besides, in data set [2], the half-life is 6.7 min.

With `N=C(N)SCCOc1oc(=O)c2cc(NC(=O)Nc3ccccc3)ccc2c1Cl` [PhNHCONH-CiTEtOIC, 7-(phenylcarbamoylamino)-4-chloro-3-(2-isothiureidoethoxy)isocoumarin], the kinact/KI on bovine trypsin (Table VIII, pH 7.5, 25° C, [I] 1.1-4.6 μM) is 21000 M⁻¹ s⁻¹; on human factor Xa (Table VIII, [I] 3.6-44 μM) it was 4740 M⁻¹ s⁻¹.
